Measured values: US20120159656A1, “COMPOSITIONS AND METHODS FOR […] DEFECTS” (Galenea Corp., priority 2009, published 2012)
Entries after “also recorded” stand apart in the source; their conditions may differ.

What was measured:
EEG power in the PFC = assay: Spectral analysis of PFC EEG by frequency band (area under the curve) in a familiar environment; assay type: in vivo, mouse
Method: Surgery, Animal handling and EEG recording were performed according to the methods disclosed herein (See, e.g., Examples 1-5). Recordings in a novel environment were made upon an animal's first exposure to the recording chamber. Animals were exposed to the recording chamber an additional 3 times (15 min each) to record EEGs from a familiar environment (fourth exposure).
EEG analysis. EEGs were analyzed using an automated FFT-periodogram function with Hamming windows in the Matlab analysis suite (pwelch function, The Mathworks, Inc., Natick MA). EEGs were analyzed in 10 sec intervals and power spectral analyses were computed for each 10 sec interval by averaging 1 sec power spectra with a 0.5 sec overlap across the entire 10 sec. Power across a given frequency band was determined by computing the area under the curve for various frequency bands (Theta: 4-12 Hz; GammaLow: 30-55 Hz; GammaHi: 65-90 Hz; Ripple: 100-300 Hz). Measures of power for each animal were binned and a frequency histogram representing number of events (10 sec each) observed at each power was computed. Frequency histograms across a given genotype were averaged to derive the final EEG power histogram for each frequency band.
To investigate the disease relevance of this intermediate power phenotype, EEGs were recorded from normal control animals in a familiar environment before and after they were treated with the psychotomimetic compound, phencyclidine (PCP) (5 mg/kg, IP).

[1] = test system: high-power gamma oscillations in the PFC; assay: EEG recording from PFC in absence and presence of novel objects before and after PCP; assay type: in vivo, mouse; settings: PCP 5 mg/kg intraperitoneal, gamma 30-90 Hz
Method: Real-time monitoring of EEGs and single-unit activity (SUA) from PFC was performed via surgical implantation of 8-microwire bundle electrodes (FIG. 5A, B). […] Recordings were made using commercially available multichannel hardware (Multichannel Systems, Reutlingen, Germany). The system is capable of monitoring EEGs and SUA from PFC in freely behaving mice (FIG. 5C) and this neural activity has been characterized (FIG. 5D).
In another series of experiments, the EEG recording techniques were determined to be sensitive enough to detect pharmacologically-induced perturbations in neural activity in vivo. For these studies EEGs from PFC were measured when mice were in the absence and presence of novel environmental stimuli. To determine whether EEGs recorded from PFC are sensitive to a pharmacologic manipulation known to impair cognitive function, animals were injected intraperitoneally with PCP (5 mg/kg) and EEGs were recorded in the absence and presence of novel environmental stimuli. This experiment confirmed that high-power gamma oscillations in the PFC were elicited while animals attend to novel stimuli in the environment (FIG. 10A). […] These observations confirm that the techniques for monitoring EEGs and SUA in the PFC of freely behaving mice are sensitive enough to detect treatments known to inhibit cognition.

[2] = test system: gamma oscillations recorded from prefrontal cortex (PFC); assay: Continuous EEG recording from PFC of well-habituated mice, maximal gamma power (30-90 Hz); settings: PCP 5 mg/kg
[3] = control animals, PCP 5 mg/kg IP

## c1ccc(C2(N3CCCCC3)CCCCC2)cc1 [PCP, phencyclidine]
EEG power in the PFC; control animals treated with PCP 5 mg/kg IP, n=5
  average power in the GammaHi frequency band (65-90 Hz): 19.12±0.11
EEG power in the PFC; [3]
  effect on power in the GammaHi frequency band (65-90 Hz): significant increase in the number of high-powered events; also recorded: increased the average spectral power
  effect on power in the GammaLow frequency band (30-55 Hz): significantly more high-powered GammaLow events; also recorded: increased the average spectral power
  effect on power in the Ripple frequency band (100-300 Hz): no significant differences in power; also recorded: no effect
  effect on power in the Theta frequency band (4-12 Hz): significant increase; also recorded: increased the average spectral power
[1]
  expression of high-power gamma oscillations during novel object presentation: completely blocked the expression of high-power gamma oscillations; also recorded: lack of a bimodal distribution in gamma oscillation power
[2]; familiar environment, normal mice
  distribution of the power of gamma oscillations: unimodal distribution of gamma oscillations with “Intermediate” power
[2]; well-habituated animals, gamma 30-90 Hz
  gamma oscillation power after injection: 4 μV^2/Hz
